The values below come from ChEMBL document CHEMBL1201862, “PubChem BioAssay data set” (2004).

What all share (assay): NCI-60 cell line screen, 48 h
Experiment [1] concerns HCT-15.
Experiment [2] has as its system TK-10.
For experiment [3], the system named is U-251.
Experiment [4] concerns KM12.
The subject of experiment [5] is IGROV-1.
The test system of experiment [6] is SK-OV-3.
The test system of experiment [7] is OVCAR-5.
Experiment [8] deals with SF-268.
Experiment [9] deals with UACC-62.
Experiment [10] relates to COLO 205.
Experiment [11] has as its system HOP-92.
Experiment [12] concerns CCRF-CEM.
Experiment [13] deals with 786-0.
Experiment [14] relates to OVCAR-8.
Experiment [15] has as its system M14.
The subject of experiment [16] is NCI-H23.
Experiment [17] concerns RXF 393.

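1) Cells in 96-well plates. 2) Compound, 48 h, 5 concentrations. 3) Linear interpolation between surrounding doses. 4) Unreached endpoint = highest concentration. GI50 marks 50% less growth.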 The source made the active and inactive calls. Rule as the data show it: active = GI50 up to about 1.1 µM and inactive = higher.

As for `CCOC(=O)C(C(=O)Cc1ccccc1)c1ccccc1` (stereo unspecified), the GI50 was over 100 µM in experiment [1]; > 100 µM (inactive) in [2]; > 100 µM (inactive) in experiment [3]; > 100 µM (inactive) in experiment [4]; > 100 µM (inactive) in experiment [5]; > 100 µM (inactive) in experiment [6]. Besides, the GI50 in experiment [7] is > 100 µM (inactive); in experiment [8], > 100 µM (inactive); in experiment [9] it was > 100 µM (inactive); in experiment [10], > 100 µM (inactive); in experiment [11], 57 µM (inactive); in experiment [12], > 100 µM (inactive). For the same molecule, the GI50 in experiment [13], in experiment [14], in [15] and in [16] was > 100 µM (inactive) each time.
Consider `Cc1cccc(NC(=O)CSc2nnc(Cc3ccccc3)o2)c1`, for which the GI50 was over 100 µM in [1]; > 100 µM (inactive) in experiment [2]; > 100 µM (inactive) in [3]; > 100 µM (inactive) in [4]; > 100 µM (inactive) in experiment [5]; > 100 µM (inactive) in [6]. The GI50 in experiment [7], in [8], in experiment [17], in [9], in [10] and in experiment [12] was > 100 µM (inactive) in each case. For the same molecule, the GI50 in [13], in experiment [14], in experiment [15] and in experiment [16] was > 100 µM (inactive) in each case.
In the case of `O=C(CC1(O)C(=O)Nc2ccccc21)c1ccccc1Cl` (stereo unspecified), the GI50 in experiment [1] was over 100 µM; in [2], > 100 µM (inactive); in [5], > 100 µM (inactive); in experiment [6], > 100 µM (inactive); in experiment [7], > 100 µM (inactive); in [8] it was > 100 µM (inactive). In addition, the GI50 in [17], in experiment [9], in experiment [10], in experiment [11], in experiment [13] and in [14] was > 100 µM (inactive) in each case. The GI50 in experiment [15] and in [16] was > 100 µM (inactive) in each case.
On to `C=CCNC(=S)N1CC(C)C(=O)Nc2ccccc21` (stereo unspecified), for which the GI50 was over 100 µM in experiment [1]; > 100 µM (inactive) in experiment [2]; > 100 µM (inactive) in [3]; > 100 µM (inactive) in experiment [4]; > 100 µM (inactive) in [5]; > 100 µM (inactive) in [7]. The GI50 in experiment [8], in [17], in experiment [9], in [10], in experiment [12] and in [13] was > 100 µM (inactive) in each case. Also, the GI50 in [14], in experiment [15] and in experiment [16] was > 100 µM (inactive) in each case.
As for `Cc1ccc(C2=Nc3ccccc3[S+]([O-])C(c3ccc4c(c3)OCO4)C2)cc1` (stereo unspecified), the GI50 was 44.7 µM (inactive) in experiment [2]; 13 µM (inactive) in experiment [3]; 18.2 µM (inactive) in experiment [4]; 34.8 µM (inactive) in [5]; 42.6 µM (inactive) in [6]; 19.5 µM (inactive) in [8]. Further, the GI50 in experiment [17] is 16.9 µM (inactive); in experiment [9], 18.3 µM (inactive); in experiment [10], 29.6 µM (inactive); in experiment [12], 26.2 µM (inactive); in experiment [13] it was 19.9 µM (inactive); in experiment [14], 20.5 µM (inactive). For the same molecule, the GI50 is 17.6 µM (inactive) in experiment [15] and 15.3 µM (inactive) in [16].
On to `O=C(CSc1nnc(Cc2ccccc2)o1)Nc1ccc(Cl)cc1Cl`, for which the GI50 in [1] was over 100 µM; in [2] it was > 100 µM (inactive); in experiment [3], > 100 µM (inactive); in [4] it was > 100 µM (inactive); in experiment [5], > 100 µM (inactive); in experiment [6], > 100 µM (inactive). In addition, the GI50 in experiment [7], in experiment [8], in experiment [17], in experiment [9], in experiment [10] and in experiment [12] was > 100 µM (inactive) in each case. For the same molecule, the GI50 in experiment [13], in experiment [14], in experiment [15] and in experiment [16] was > 100 µM (inactive) throughout.
Turning to `CN(C)c1n/c(=N/c2ccc3ccccc3c2)ss1`, the GI50 is 17.3 µM in experiment [1]; 14.1 µM (inactive) in experiment [2]; 6.22 µM (inactive) in experiment [3]; 15.6 µM (inactive) in [4]; 19 µM (inactive) in [5]; 77.1 µM (inactive) in experiment [6]. Moreover, the GI50 in experiment [8] was 33.7 µM (inactive); in [17] it was 41.9 µM (inactive); in experiment [9] it was 21.5 µM (inactive); in [10], 11.2 µM (inactive); in experiment [12], 7.05 µM (inactive); in [13], 37.6 µM (inactive). In addition, the GI50 was 19.5 µM (inactive) in [14] and 24 µM (inactive) in experiment [15].
`CCNC(=O)O/N=C1\CCC2[C@@H]3CC=C4C[C@@H](OC5CCCCO5)CC[C@]4(C)C3CC[C@]12C` (stereo partly specified): the GI50 in experiment [1] is 1.63 µM; in [2], 2 µM (inactive); in [3], 1.89 µM (inactive); in [4], 3.94 µM (inactive); in experiment [5] it was 3.16 µM (inactive); in [6], 5.31 µM (inactive). The GI50 in experiment [7] is 2.48 µM (inactive); in experiment [17], 2.2 µM (inactive); in experiment [9], 0.733 µM (active); in experiment [10] it was 0.964 µM (active); in [11], 2.48 µM (inactive); in [13], 2.31 µM (inactive). The GI50 in [14] is 3.9 µM (inactive); in [15] it was 1.71 µM (inactive); in experiment [16] it was 2.72 µM (inactive).
On to `COc1ccc(C(c2ccccc2C(=O)O)c2ccc(OC)c3ccccc23)c2ccccc12`, for which the GI50 in [1] is 8.63 µM; in experiment [2], 19.9 µM (inactive); in experiment [3] it was 7.83 µM (inactive); in experiment [4] it was 8.15 µM (inactive); in experiment [5] it was 11.3 µM (inactive); in [6] it was 23.6 µM (inactive). Also, the GI50 in experiment [7] is 15.1 µM (inactive); in experiment [8], > 10 µM (inactive); in experiment [9] it was 4.71 µM (inactive); in experiment [10], 13 µM (inactive); in experiment [11], 33.5 µM (inactive); in experiment [12], 8.79 µM (inactive). For the same molecule, the GI50 in experiment [13] is 15.8 µM (inactive); in experiment [14] it was 10.5 µM (inactive); in experiment [15], 16.2 µM (inactive); in experiment [16] it was > 10 µM (inactive).
With `CCN(CC)c1cccc2c1C1(O)CCC3(CC21)OCCCCO3` (stereo unspecified), the GI50 in [1] is 66.8 µM; in experiment [2] it was > 100 µM (inactive); in [3], 39.9 µM (inactive); in experiment [4] it was 57.8 µM (inactive); in experiment [5], 67.1 µM (inactive); in experiment [6], 71.9 µM (inactive). For the same molecule, the GI50 in experiment [7] was > 100 µM (inactive); in experiment [8], > 100 µM (inactive); in experiment [17] it was 15.3 µM (inactive); in experiment [10] it was > 100 µM (inactive); in experiment [12] it was 90.4 µM (inactive); in experiment [13], 74 µM (inactive). The GI50 in [14] was 44.9 µM (inactive); in experiment [15] it was > 100 µM (inactive); in experiment [16], > 100 µM (inactive).
As for `N#CC1(C2CC(=O)N(c3ccccc3)C2=O)CCCCC1=O` (stereo unspecified), the GI50 in experiment [1] is over 100 µM; in experiment [2] it was > 100 µM (inactive); in [3] it was > 100 µM (inactive); in experiment [4], > 100 µM (inactive); in experiment [5] it was > 100 µM (inactive); in [6], > 100 µM (inactive). Further, the GI50 in [7], in experiment [8], in experiment [17], in experiment [9], in [10] and in experiment [12] was > 100 µM (inactive) in each case. The GI50 in experiment [13], in experiment [14], in experiment [15] and in [16] was > 100 µM (inactive) each time.
With `Cc1c(-c2ccccc2)c(=O)oc2ccc(Cl)cc12`, the GI50 is over 100 µM in [1]; 33.3 µM (inactive) in [2]; 46.9 µM (inactive) in experiment [3]; > 100 µM (inactive) in experiment [4]; > 100 µM (inactive) in experiment [5]; 34.4 µM (inactive) in experiment [6]. The GI50 in experiment [7] is > 100 µM (inactive); in experiment [8] it was 90.2 µM (inactive); in experiment [9], 59.8 µM (inactive); in [10], > 100 µM (inactive); in experiment [11] it was 32.7 µM (inactive); in experiment [12], > 100 µM (inactive). Besides, the GI50 is 36.5 µM (inactive) in [13], 53.3 µM (inactive) in [14], 26.7 µM (inactive) in [15] and 57.8 µM (inactive) in experiment [16].
In the case of `CCCCCC[C@@H]1CCC2C(CO)[C@@H](O)CC[C@@H]2C1` (stereo partly specified), the GI50 in experiment [1] was 19 µM; in experiment [3], 18.2 µM (inactive); in [4], 18.7 µM (inactive); in experiment [5] it was 18.2 µM (inactive); in experiment [7] it was 18.5 µM (inactive); in experiment [8] it was 18.1 µM (inactive). Moreover, the GI50 is 21.3 µM (inactive) in [9]; 18.5 µM (inactive) in experiment [10]; 23.6 µM (inactive) in experiment [12]; 19.3 µM (inactive) in [13]; 18.2 µM (inactive) in experiment [14]; 17.5 µM (inactive) in experiment [15]. Besides, in experiment [16], the GI50 is 16 µM (inactive).
